Source: US20050245399A1, “Pyrazole derivatives as herbicidal compositions containing them” (ISHIHARA SANGYO KAISHA, LTD., priority 2004, published 2005)

Legend:
Type in all cases: in vivo
[1] = system: rice (Oryza sativa L.): ORYSA; assay: Test Example 1 pre-emergence herbicidal activity, ORYSA; conditions: visually observed 20th to 23rd day after application
Outline: (§1)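 Scoring was visual growth control (0 = untreated, 100 = complete kill) on days 20–23 post-application. Treatment came as a pre-emergence spray one day after sowing in upland soil, using wettable powder or emulsifiable concentrate diluted in 500 L/ha water at predetermined active-ingredient amounts.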

[2] = system: rice (Oryza sativa L.: ORYSA); assay: Test Example 3 water application herbicidal activity (paddy), transplanted rice ORYSA; conditions: 63 g a.i./ha, water application 4th day after transplantation of 2 leaf stage rice, visually observed 21st day after application; 0 = untreated control, 100 = complete kill
Description: Paddy field soil was put into a 1/1,000,000 ha pot and seeds of barnyardgrass (Echinochiloa oryzicola: ECHOR) and japanese bulrush (Scirpus juncoides: SCPJO) were sown and slightly covered with soil. Then the pot was left to stand still in a greenhouse in a state where the depth of flooding water was from 0.5 to 1 cm, and one day later, tubers of japanese ribbon wapato (Sagittaria pygmaea: SA GPY) were planted. Thereafter, the depth of flooding water was maintained at a level of from 3 to 4 cm, and when barnyardgrass and japanese bulrush reached a 0.5 leaf stage, an aqueous diluted solution of a wettable powder or emulsifiable concentrate having the compound of the present invention formulated in accordance with a usual formulation method, was uniformly applied under submerged condition by a pipette so that the dose of the active ingredient would be at a predetermined level. On the other hand, paddy filed soil was put into a 1/1,000,000 ha pot and puddled and leveled, and the depth of flooding water was from 3 to 4 cm. One day later, rice (Oryza sativa L.: ORYSA) of 2 leaf stage was transplanted in a depth of 3 cm. On the 4th day after the transplantation, the compound of the present invention was applied in the same manner as described above. On the 14th day after the application of the herbicide, the growth of barnyardgrass, japanese burlush and japanese ribbon wapato was visually observed and on the 21st day after the application of the herbicide, the growth of rice was visually observed, and the herbicidal effects were evaluated by growth controlling degrees (%) ranging from 0 (equivalent to the untreated control) to 100 (complete kill), whereby the results shown in Table 6, were obtained. Compound Nos. in Table 6 correspond to Compound Nos. in Table 1 and 2 given hereinbefore.

[3] = system: green foxtail (Setaria viridis L.), SETVI; assay: Test Example 2 post-emergence (foliage treatment) herbicidal activity, SETVI; conditions: 63 g a.i./ha
Outline: (§2)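 Each species was evaluated for growth suppression by eye, 0% matching untreated and 100% meaning death, some 20 to 23 days after a single post-emergence foliar treatment applied in 500 L/ha of water carrying 0.1% (v/v) agricultural spreader.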

[4] = system: green foxtail (Setaria viridis L.): SETVI; assay: Test Example 1 pre-emergence herbicidal activity, SETVI; conditions: visually observed 20th to 23rd day after application
Outline: as §1

[5] = system: japanese bulrush (Scirpus juncoides: SCPJO); assay: Test Example 3 water application herbicidal activity (paddy), SCPJO; conditions: 63 g a.i./ha, water application under submerged condition at 0.5 leaf stage, visually observed 14th day after application; 0 = untreated control, 100 = complete kill
Outline: (§3)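 Compound, as diluted wettable powder or emulsifiable concentrate, was pipetted into flood water at a set active-ingredient dose. Weeds were treated at 0.5-leaf stage after sowing or tuber planting; 2-leaf rice 4 days post-transplant. Control scored visually, 0 untreated to 100 complete kill, weeds day 14, rice day 21.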

[6] = system: crabgrass (Digitaria sanguinalis L.), DIGSA; assay: Test Example 2 post-emergence (foliage treatment) herbicidal activity, DIGSA; conditions: 63 g a.i./ha
Outline: (§4)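 Visual rating of growth control, from 0 (untreated-like) to 100 (complete kill), was done 20–23 days after post-emergence spraying. Wettable powder or emulsifiable concentrate was diluted to 500 L/ha with 0.1% (v/v) spreader. Leaf stages at application were 1.1-2.1 (ECHCG), 1.0-2.0 (DIGSA), 0.1-1.5 (AMARE) and 1.0-2 (ORYSA).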

[7] = system: soybean (Glycine max Merr.), GLXMA; assay: Test Example 2 post-emergence (foliage treatment) herbicidal activity, GLXMA; conditions: 63 g a.i./ha
Outline: as §2

[8] = system: velvetleaf (Abutilon theophrasti): ABUTH; assay: Test Example 1 pre-emergence herbicidal activity, ABUTH; conditions: visually observed 20th to 23rd day after application
Outline: as §1

[9] = system: soybean (Glycine max Merr.): GLXMA; assay: Test Example 1 pre-emergence herbicidal activity, GLXMA; conditions: visually observed 20th to 23rd day after application
Outline: as §1

[10] = system: japanese ribbon wapato (Sagittaria pygmaea: SA GPY); assay: Test Example 3 water application herbicidal activity (paddy), SAGPY; conditions: 63 g a.i./ha, water application under submerged condition, tubers planted, visually observed 14th day after application; 0 = untreated control, 100 = complete kill
Outline: as §3

[11] = system: barnyardgrass (Echinochloa crus-galli L.), ECHCG; assay: Test Example 2 post-emergence (foliage treatment) herbicidal activity, ECHCG; conditions: 63 g a.i./ha
Outline: as §4

[12] = system: barnyardgrass (Echinochiloa oryzicola: ECHOR); assay: Test Example 3 water application herbicidal activity (paddy), ECHOR; conditions: 63 g a.i./ha, water application under submerged condition at 0.5 leaf stage, visually observed 14th day after application; 0 = untreated control, 100 = complete kill
Outline: as §3

[13] = system: crabgrass (Digitaria sanguinalis L.): DIGSA; assay: Test Example 1 pre-emergence herbicidal activity, DIGSA; conditions: visually observed 20th to 23rd day after application
Outline: as §1

[14] = system: barnyardgrass (Echinochloa crus-galli L.): ECHCG; assay: Test Example 1 pre-emergence herbicidal activity, ECHCG; conditions: visually observed 20th to 23rd day after application
Outline: as §1

[15] = system: wheat (Triticum aestivum L.): TRZAX; assay: Test Example 1 pre-emergence herbicidal activity, TRZAX; conditions: visually observed 20th to 23rd day after application
Outline: as §1

[16] = system: wheat (Triticum aestivum L.), TRZAX; assay: Test Example 2 post-emergence (foliage treatment) herbicidal activity, TRZAX; conditions: 63 g a.i./ha
Outline: as §2

[17] = system: prickly sida (Sida spinosa L.), SIDSP; assay: Test Example 2 post-emergence (foliage treatment) herbicidal activity, SIDSP; conditions: 63 g a.i./ha
Outline: as §2

[18] = system: velvetleaf (Abutilon theophrasti), ABUTH; assay: Test Example 2 post-emergence (foliage treatment) herbicidal activity, ABUTH; conditions: 63 g a.i./ha
Outline: as §2

[19] = system: corn (Zea mays L.): ZEAMX; assay: Test Example 1 pre-emergence herbicidal activity, ZEAMX; conditions: visually observed 20th to 23rd day after application
Outline: as §1

[20] = system: rice (Oryza sativa L.), ORYSA; assay: Test Example 2 post-emergence (foliage treatment) herbicidal activity, ORYSA; conditions: 63 g a.i./ha
Outline: as §4

[21] = system: prickly sida (Sida spinosa L.): SEDSP; assay: Test Example 1 pre-emergence herbicidal activity, SIDSP; conditions: visually observed 20th to 23rd day after application
Outline: as §1

[22] = system: corn (Zea mays L.), ZEAMX; assay: Test Example 2 post-emergence (foliage treatment) herbicidal activity, ZEAMX; conditions: 63 g a.i./ha
Outline: as §2

[23] = system: redroot pigweed (Amaranthus retroflexus L.), AMARE; assay: Test Example 2 post-emergence (foliage treatment) herbicidal activity, AMARE; conditions: 63 g a.i./ha
Outline: as §4

[24] = system: redroot pigweed (Amaranthus retroflexus L.): AMARE; assay: Test Example 1 pre-emergence herbicidal activity, AMARE; conditions: visually observed 20th to 23rd day after application
Outline: as §1

Row | Structure (SMILES) | Pre-emergence Herbicidal Activity ORYSA (growth controlling degree) ([1]; Rate 63 g a.i./ha) [%] | growth controlling degrees (%) ORYSA [2] [%] | growth controlling degree, SETVI [3] [%] | Pre-emergence Herbicidal Activity SETVI (growth controlling degree) ([4]; Rate 63 g a.i./ha) [%] | growth controlling degrees (%) SCPJO [5] [%] | growth controlling degree, DIGSP [6] [%] | growth controlling degree, GLXMA [7] [%] | Pre-emergence Herbicidal Activity ABUTH (growth controlling degree) ([8]; Rate 63 g a.i./ha) [%] | Pre-emergence Herbicidal Activity GLXMA (growth controlling degree) ([9]; Rate 63 g a.i./ha) [%] | growth controlling degrees (%) SAGPY [10] [%] | growth controlling degree, ECHCO [11] [%] | growth controlling degrees (%) ECHOR [12] [%] | Pre-emergence Herbicidal Activity DIGSP (growth controlling degree) ([13]; Rate 63 g a.i./ha) [%] | Pre-emergence Herbicidal Activity ECHCG (growth controlling degree) ([14]; Rate 63 g a.i./ha) [%] | growth controlling degree, TRZAX [16] [%] | growth controlling degree, SIDSP [17] [%] | growth controlling degree, ABUTH [18] [%] | growth controlling degree, ORYSA [20] [%] | growth controlling degree, ZEAMX [22] [%] | growth controlling degree, AMARE [23] [%] | further results
1 | COc1c(Cl)cc(F)c(-c2nn(C)c(OC(F)F)c2Cl)c1NC(=O)C(C)C [Compound 1-3] | 80 | 80 | 100 | 100 | 98 | 95 | 80 | 100 | 20 | 100 | 70 | 100 | 100 | 100 | 40 | 100 | 100 | 80 | 70 | 100 | Pre-emergence Herbicidal Activity TRZAX (growth controlling degree) ([15]; Rate 63 g a.i./ha): 40%; Pre-emergence Herbicidal Activity ZEAMX (growth controlling degree) ([19]; Rate 63 g a.i./ha): 50%; Pre-emergence Herbicidal Activity SIDSP (growth controlling degree) ([21]; Rate 63 g a.i./ha): 100%; Pre-emergence Herbicidal Activity AMARE (growth controlling degree) ([24]; Rate 63 g a.i./ha): 100%
2 | COc1c(Cl)cc(F)c(-c2nn(C)c(OC(F)F)c2Cl)c1N(C=O)C(C)C [Compound 1-8] | 60 | 30 | 100 | 100 | 60 | 60 | 70 | 100 | 70 | 20 | 70 | 80 | 60 | 70 | 50 | 100 | 100 | 60 | 40 | 100 | Pre-emergence Herbicidal Activity TRZAX (growth controlling degree) ([15]; Rate 63 g a.i./ha): 50%; Pre-emergence Herbicidal Activity ZEAMX (growth controlling degree) ([19]; Rate 63 g a.i./ha): 40%; Pre-emergence Herbicidal Activity SIDSP (growth controlling degree) ([21]; Rate 63 g a.i./ha): 100%; Pre-emergence Herbicidal Activity AMARE (growth controlling degree) ([24]; Rate 63 g a.i./ha): 100%
3 | COc1c(Cl)cc(F)c(-c2nn(C)c(OC(F)F)c2Cl)c1NC(=O)COc1ccccc1 [Compound 1-15] | 40 | 50 | 100 | 100 | 90 | 70 | 50 | 60 | 30 | 98 | 90 | 100 | 100 | 70 | 50 | 100 | 100 | 80 | 50 | 100 | Pre-emergence Herbicidal Activity TRZAX (growth controlling degree) ([15]; Rate 63 g a.i./ha): 30%; Pre-emergence Herbicidal Activity ZEAMX (growth controlling degree) ([19]; Rate 63 g a.i./ha): 10%; Pre-emergence Herbicidal Activity SIDSP (growth controlling degree) ([21]; Rate 63 g a.i./ha): 60%; Pre-emergence Herbicidal Activity AMARE (growth controlling degree) ([24]; Rate 63 g a.i./ha): 100%
4 | COc1c(Cl)cc(F)c(-c2nn(C)c(OC(F)F)c2Cl)c1N(C(=O)CCc1ccccc1)C(=O)CCc1ccccc1 [Compound 1-18] | – | 30 | 80 | – | 40 | 70 | 60 | – | – | 50 | 70 | 100 | – | – | 10 | 100 | 100 | 60 | 60 | 100 | Pre-emergence Herbicidal Activity ORYSA (growth controlling degree) ([1]; Rate 125 g a.i./ha): 50%; Pre-emergence Herbicidal Activity SETVI (growth controlling degree) ([4]; Rate 125 g a.i./ha): 50%; Pre-emergence Herbicidal Activity ABUTH (growth controlling degree) ([8]; Rate 125 g a.i./ha): 40%; Pre-emergence Herbicidal Activity GLXMA (growth controlling degree) ([9]; Rate 125 g a.i./ha): 20%; Pre-emergence Herbicidal Activity DIGSP (growth controlling degree) ([13]; Rate 125 g a.i./ha): 98%; Pre-emergence Herbicidal Activity ECHCG (growth controlling degree) ([14]; Rate 125 g a.i./ha): 70%; Pre-emergence Herbicidal Activity TRZAX (growth controlling degree) ([15]; Rate 125 g a.i./ha): 30%; Pre-emergence Herbicidal Activity ZEAMX (growth controlling degree) ([19]; Rate 125 g a.i./ha): 0%; Pre-emergence Herbicidal Activity SIDSP (growth controlling degree) ([21]; Rate 125 g a.i./ha): 60%; Pre-emergence Herbicidal Activity AMARE (growth controlling degree) ([24]; Rate 125 g a.i./ha): 100%
5 | CCOC(=O)CN(C=O)c1c(OC)c(Cl)cc(F)c1-c1nn(C)c(OC(F)F)c1Cl [Compound 1-19] | – | 30 | 30 | – | 30 | 30 | 60 | – | – | 20 | 30 | 70 | – | – | 10 | 90 | 90 | 20 | 0 | 100 | Pre-emergence Herbicidal Activity ORYSA (growth controlling degree) ([1]; Rate 125 g a.i./ha): 0%; Pre-emergence Herbicidal Activity SETVI (growth controlling degree) ([4]; Rate 125 g a.i./ha): 10%; Pre-emergence Herbicidal Activity ABUTH (growth controlling degree) ([8]; Rate 125 g a.i./ha): 20%; Pre-emergence Herbicidal Activity GLXMA (growth controlling degree) ([9]; Rate 125 g a.i./ha): 0%; Pre-emergence Herbicidal Activity DIGSP (growth controlling degree) ([13]; Rate 125 g a.i./ha): 50%; Pre-emergence Herbicidal Activity ECHCG (growth controlling degree) ([14]; Rate 125 g a.i./ha): 0%; Pre-emergence Herbicidal Activity TRZAX (growth controlling degree) ([15]; Rate 125 g a.i./ha): 0%; Pre-emergence Herbicidal Activity ZEAMX (growth controlling degree) ([19]; Rate 125 g a.i./ha): 20%; Pre-emergence Herbicidal Activity SIDSP (growth controlling degree) ([21]; Rate 125 g a.i./ha): 50%
